Data published in article PMC4856737 (Bioorganic & medicinal chemistry letters, 2016).

How the values were obtained:
[1] = tested on: M. Tb. H37Rv (ATCC 27294); assay: M. Tb. H37Rv dose-response assay; assay type: cell-based; conditions: Mycobacterium tuberculosis, ATCC27294|H37RV
[2] = tested on: M. Tb. H37Rv; assay: Minimum bactericidal concentration; assay type: cell-based, Mycobacterium tuberculosis
[3] = in vitro; conditions: mouse, % of cellular viability, High conc

SMILES	IC50 [1] [nM]	MBC ([2]; NA: colony counts above the established rejection value ≥ 40, TNTC: too numerous to count)	viability [3] [%]	bactericidal classification ([2]; ratio MBC/MIC ≤ 4)
O=C(c1ccco1)c1c(C(F)(F)F)[n+]([O-])c2cc(Cl)c(N3CCOCC3)cc2[n+]1[O-] [Compound 16]	500 to 1500	TNTC	26	–
CC(=O)c1c(C(F)(F)F)nc2cc(F)c(N3CCSCC3)cc2[n+]1[O-] [Compound 24]	500 to 1500	–	–	–
COC(=O)c1c(C(F)(F)F)[n+]([O-])c2ccc(N3CCN(c4ccc(F)cc4)CC3)cc2[n+]1[O-] [Compound 21]	–	–	–	bactericidal
Cc1c(C(=O)/C=C/c2ccccc2)[n+]([O-])c2cc(Cl)ccc2[n+]1[O-] [Compound 3]	500 to 1500	–	–	–
